Values after ≈ are worked out from the molar mass of the structure shown.
How the values were obtained:
P. aeruginosa PA14 = experiment: MIC testing against P. aeruginosa PA14, same protocol; format: cell-based, Pseudomonas aeruginosa; conditions: according to the protocol above
Method: For each strain to be tested, made fresh streaks onto CAMHA from −80° C. glycerol stocks. • CAMHB: Dissolved 22 g of the powder per 1 L of purified water. Mixed well. Autoclaved at 121° C. for 10 minutes. Stored at room temperature (RT) for no more than 1 week. • Saline: Dissolved 9 g of the powder per 1 L of purified water. Mixed well. Autoclaved at 121° C. for 30 minutes. Stored at room temperature (RT) for no more than 1 week. Prepared the stock solutions of the tested compounds. For compounds: • a) Dispensed 20 ul compound to the wells in column 1, and 20 ul DMSO to the wells in column 2 to 12; • b) Diluted the compounds by transferring 10 ul compounds from column 1 to 20 ul DMSO in column 2; mix with pipette. • c) Repeated until column 11 to get 3×serial dilutions. Column 12 was the DMSO control. A multichannel pipette was used to deliver 1 μl of the diluted compound into each well of the corresponding daughter plate. Scraped 4-8 single colonies from an agar plate into 5 ml saline in a 14 ml Falcon conical tube. Vortexed the tube to suspend the bacteria. Adjusted the turbidity to ˜0.2 (corresponding to 0.5 McFarland) with an Ultrospec 10 Cell density meter. The strain suspension was diluted 200-fold in CAMHB medium and dispense into a sterile reservoir. A multichannel pipette was then used to deliver 99 μl of the diluted inocula into each well of the corresponding daughter plate. Incubate the daughter plates at 37° C., 85% humidity for 18-20 hr. […] A magnifying mirror device was used for ease of scoring the presence or absence of growth in the wells. 96-well micro-plates were photographed. […]

[1] = test system: Acinetobacter baumannii, ATCC 17978; experiment: MIC testing, broth microdilution in CAMHB; format: cell-based; conditions: 18-20 hr, lowest concentration that completely inhibits visible growth; for Compound MICs, Acinetobacter baumannii, ATCC 17978: 37° C.; for MIC: Acinetobacter baumannii, ATCC17978, 37° C., read-out: Compound MICs, Acinetobacter baumannii, ATCC 17978
Method: (§1) Compounds 1-71 were subsequently tested to determine MICs of the compounds relative to the following five species/strains of bacteria: Staphylococcus aureus, NRS384; Enterococcus faecalis, ATCC 51575; Salmonella typhimurium, CMCC 50115; Escherichia coli, ATCC BAA-198; and Acinetobacter baumannii, ATCC 17978. MIC testing of compounds was conducted according to the following protocol.
(§2) For each strain to be tested, made fresh streaks onto CAMHA from −80° C. glycerol stocks.
(§3) • CAMHB: Dissolved 22 g of the powder per 1 L of purified water. Mixed well. Autoclaved at 121° C. for 10 minutes. Stored at room temperature (RT) for no more than 1 week. • Saline: Dissolved 9 g of the powder per 1 L of purified water. Mixed well. Autoclaved at 121° C. for 30 minutes. Stored at room temperature (RT) for no more than 1 week.
(§4) Prepared the stock solutions of the tested compounds.
(§5) For compounds: • a) Dispensed 20 ul compound to the wells in column 1, and 20 ul DMSO to the wells in column 2 to 12; • b) Diluted the compounds by transferring 10 ul compounds from column 1 to 20 ul DMSO in column 2; mix with pipette. • c) Repeated until column 11 to get 3×serial dilutions. Column 12 was the DMSO control.
(§6) A multichannel pipette was used to deliver 1 μl of the diluted compound into each well of the corresponding daughter plate.
(§7) Scraped 4-8 single colonies from an agar plate into 5 ml saline in a 14 ml Falcon conical tube. Vortexed the tube to suspend the bacteria. Adjusted the turbidity to ˜0.2 (corresponding to 0.5 McFarland) with an Ultrospec 10 Cell density meter.
(§8) The strain suspension was diluted 200-fold in CAMHB medium and dispense into a sterile reservoir. A multichannel pipette was then used to deliver 99 μl of the diluted inocula into each well of the corresponding daughter plate.
(§9) Incubate the daughter plates at 37° C., 85% humidity for 18-20 hr.
(§10) A magnifying mirror device was used for ease of scoring the presence or absence of growth in the wells. 96-well micro-plates were photographed.

[2] = test system: Staphylococcus aureus, NRS384; experiment: MIC testing, broth microdilution in CAMHB; format: cell-based; conditions: 18-20 hr, lowest concentration that completely inhibits visible growth; for Compound MICs, Staphylococcus aureus, NRS384: 37° C.; for MIC: Staphylococcus aureus, NRS384, 37° C., read-out: Compound MICs, Staphylococcus aureus, NRS384
Method: as §1, §2, §3, §4, §5, §6, §7, §8, §9, §10

[3] = test system: Salmonella typhimurium, CMCC 50115; experiment: MIC testing, broth microdilution in CAMHB; format: cell-based; conditions: 37° C., 18-20 hr, lowest concentration that completely inhibits visible growth; for MIC: Salmonella enterica, read-out: Compound MICs, Salmonella typhimurium, CMCC 50115
Method: as §1, §2, §3, §4, §5, §6, §7, §8, §9, §10

[4] = test system: Enterococcus faecalis, ATCC 51575; experiment: MIC testing, broth microdilution in CAMHB; format: cell-based; conditions: 18-20 hr, lowest concentration that completely inhibits visible growth; for Compound MICs, Enterococcus faecalis, ATCC 51575: 37° C.; for MIC: Enterococcus faecalis, ATCC51575, 37° C., read-out: Compound MICs, Enterococcus faecalis, ATCC 51575
Method: as §1, §2, §3, §4, §5, §6, §7, §8, §9, §10

[5] = test system: Escherichia coli, ATCC BAA-198; experiment: MIC testing, broth microdilution in CAMHB; format: cell-based; conditions: 18-20 hr, lowest concentration that completely inhibits visible growth; for Compound MICs, Escherichia coli, ATCC BAA-198: 37° C.; for MIC: Escherichia coli, ATCCBAA198, 37° C., read-out: Compound MICs, Escherichia coli, ATCC BAA-198
Method: as §1, §2, §3, §4, §5, §6, §7, §8, §9, §10

SMILES | MICs against P. aeruginosa PA14 (P. aeruginosa PA14) [µg/mL] | Compound MICs, Acinetobacter baumannii, ATCC 17978 [1] [µg/mL] | Compound MICs, Staphylococcus aureus, NRS384 [2] [µg/mL] | Compound MICs, Salmonella typhimurium, CMCC 50115 [3] [µg/mL] | Compound MICs, Enterococcus faecalis, ATCC 51575 [4] [µg/mL] | Compound MICs, Escherichia coli, ATCC BAA-198 [5] [µg/mL] | MIC (P. aeruginosa PA14; Pseudomonas aeruginosa, PA14, read-out: MICs against P. aeruginosa PA14) [µg/mL] | MIC [1] [µg/mL] | MIC [2] [µg/mL] | MIC [3] [µg/mL] | MIC [4] [µg/mL] | MIC [5] [µg/mL]
Nc1nc(N)c2c(ccc3c2ccn3-c2ccc(F)cc2)n1 [Compound 40] | 45 | 2.37 | 0.26 | 0.26 | 0.09 | 7.11 |  |  |  |  |  | 
Nc1nc(N)c2c(ccc3c2ccn3Cc2ccc(F)cc2)n1 [Compound 10] |  |  |  |  |  |  | 25 (≈ 81.3 µM) | 0.79 (≈ 2.57 µM) | 0.088 (≈ 0.286 µM) | 0.088 (≈ 0.286 µM) | 0.01 (≈ 0.0325 µM) | 2.37 (≈ 7.71 µM)
Nc1nc(N)c2c(ccc3c2ccn3Cc2ccc(F)nc2)n1 [Compound 45] | 6.3 | 2.37 | 0.26 | 0.003 | 0.01 | 7.11 |  |  |  |  |  | 
Nc1nc(N)c2c(ccc3c2ccn3Cc2cccc(F)n2)n1 [Compound 48] | 12.5 | 0.79 | 0.09 | 0.003 | ≤0.001 | 7.11 |  |  |  |  |  | 
Nc1nc(N)c2c(ccc3c2ccn3Cc2cccc(F)c2)n1 [Compound 12] |  |  |  |  |  |  |  | 2.37 (≈ 7.71 µM) | 0.26 (≈ 0.846 µM) | 0.79 (≈ 2.57 µM) | 0.03 (≈ 0.0976 µM) | 7.11 (≈ 23.1 µM)
Nc1nc(N)c2c(ccc3c2ccn3Cc2ccc(-c3ccccc3)cn2)n1 [Compound 58] |  | 2.37 | 0.09 | 0.26 | 0.03 | 7.11 |  |  |  |  |  | 
CCc1ccc(Cn2ccc3c4c(N)nc(N)nc4ccc32)cc1 [Compound 31] |  | 7.11 | 0.26 | 0.79 | 0.09 | 7.11 |  |  |  |  |  | 
Nc1nc(N)c2c(ccc3c2ccn3Cc2ccc(C#Cc3ccccc3)cc2)n1 [Compound 23] |  | >64 | 2.37 | >64 | 0.26 | >64 |  |  |  |  |  | 

Reference: US20230295164A1, “COMPOUNDS HAVING ANTIBACTERIAL ACTIVITY” (The Trustees of Princeton University, priority 2020, published 2023)
